Values of other authors as cited in patent publication US20190151329A1, “THERAPEUTIC USE OF DIAMINOPHENOTHIAZINES” (WisTa Laboratories Ltd., priority 2007, published 2019).
“And” between values parts separate entries of the source, which are not always exact repeats. Equal values may be shown once. Read-outs that look alike come from different tables or passages of the source.

Key:
[1] = cited from earlier work; for Ox-MT urinary excretion rate / L-MT urinary excretion rate: 10 mg MTC oral
[2] = cited from earlier work; for Blood Ox-MT concentration: human whole blood
[3] = human, time 48 hr (mid-time 40.5 hr)
[4] = human, time 57 hr (mid-time 52.5 hr)
[5] = human, time 72 hr (mid-time 64.5 hr)
[6] = human, time 81 hr (mid-time 76.5 hr)
[7] = human, time 96 hr (mid-time 88.5 hr)
[8] = human, time 105 hr (mid-time 100.5 hr)
[9] = human, time 120 hr (mid-time 112.5 hr)
[10] = human, 10 mg oral, non-compartmental secondary parameter
[11] = human, 10 mg oral, urinary excretion data

For `CN(C)c1ccc2nc3ccc(=[N+](C)C)cc-3sc2c1` [MTC, methylthioninium chloride], the “Ox-MT urinary excretion rate” value ([1]; human, time 33 hr (mid-time 28.5 hr)) is listed as 24.34 µg/h, the “L-MT urinary excretion rate” value [1, 3] is listed as 26.77 µg/h and the “Ox-MT urinary excretion rate” value [1, 3] is listed as 11.02 µg/h. For the same compound, the “L-MT urinary excretion rate” value [1, 4] was 14.11 µg/h, the “Ox-MT urinary excretion rate” value [1, 4] was 5.00 µg/h and the “L-MT urinary excretion rate” value [1, 5] was 7.88 µg/h. The “Ox-MT urinary excretion rate” value [1, 5] was 4.98 µg/h, the “L-MT urinary excretion rate” value [1, 6] was 6.39 µg/h and the “Ox-MT urinary excretion rate” value [1, 6] was 2.53 µg/h. For the same compound, the “L-MT urinary excretion rate” value [1, 7] was 3.09 µg/h, the “Ox-MT urinary excretion rate” value [1, 7] was 1.74 µg/h and the “L-MT urinary excretion rate” value [1, 8] was 3.02 µg/h. For the same compound, the “Ox-MT urinary excretion rate” value [1, 8] was 1.23 µg/h, the “L-MT urinary excretion rate” value [1, 9] was 1.91 µg/h and the “Ox-MT urinary excretion rate” value [1, 9] was 0.88 µg/h. For the same compound, the “MRT, Free (Ox-MTC)” value ([1]; human, 10 mg oral) was 24.5000 h, the “MRT, Leuco (L-MT)” value ([1]; human, 10 mg oral) was 16.8774 h and the “T½ (distribution), Free (Ox-MTC)” value ([1]; human, 10 mg oral) was 0.5930 h. For the same compound, the “T½ (distribution), Leuco (L-MT)” value ([1]; human, 10 mg oral) was 1.1530 h, the “T½ (elimination), Free (Ox-MTC)” value ([1]; human, 10 mg oral) was 15.0364 h and the “T½ (elimination), Leuco (L-MT)” value ([1]; human, 10 mg oral) was 16.4953 h. For the same compound, the “Urinary excretion (% of total), Free (Ox-MT)” value ([1]; human, 10 mg oral) was 23% and 22.94%, the “Urinary excretion (% of total), Leuco (L-MT)” value ([1]; human, 10 mg oral) was 77% and 77.06% and the total urinary recovery ([1]; human, 10 mg oral) was 65 % of dose. The “AUC, Leuco (L-MT)” value [1, 10] was 4981.55 µg·h, the “CI, Free (Ox-MTC)” value [1, 10] was 6.7420 L/h and the “CI, Leuco (L-MT)” value [1, 10] was 2.0074 L/h. For the same compound, the “F (calculated bioavailability), Free (Ox-MTC)” value [1, 10] was 0.1483, the “F (calculated bioavailability), Leuco (L-MT)” value [1, 10] was 0.4982 and the “Vc, Free (Ox-MTC)” value [1, 10] was 4.4188 L. For the same compound, the “Vc, Leuco (L-MT)” value [1, 10] was 4.1152 L, the “K12, Free (Ox-MTC)” value [1, 11] was 0.7506 and the “K12, Leuco (L-MT)” value [1, 11] was 0.2962. The “K21, Free (Ox-MTC)” value [1, 11] was 0.2381, the “Kel (terminal elimination rate constant), Free (Ox-MTC)” value [1, 11] was 0.2263 and the “Kel (terminal elimination rate constant), Leuco (L-MT)” value [1, 11] was 0.2430. The “Tlag, Free (Ox-MTC)” value [1, 11] was 0.2078 h, the “Tlag, Leuco (L-MT)” value [1, 11] was 0.2381 h and the “VcF (Vc × F), Leuco (L-MT)” value [1, 11] was 8.2607 L. For the same compound, the “terminal elimination half-life (Ox-MT and L-MT comparable)” value [1, 11] was roughly 16 h, the “corrected apparent central volume (Ox-MT and L-MT comparable)” value ([1]; in vivo, po) was 4 L and the “terminal elimination half-life deduced by Peter et al.” value ([2]; from analysis of blood concentration data) was 5.5 to 6.3 h. For the same compound, the “Blood Ox-MT concentration” value ([2]; 100 mg MTC IV, 0.09 hr) was 6.06 µmol/L, the “Blood Ox-MT concentration” value ([2]; 100 mg MTC IV, 0.15 hr) was 3.32 µmol/L and the “Blood Ox-MT concentration” value ([2]; 100 mg MTC IV, 0.24 hr) was 1.73 µmol/L. For the same compound, the “Blood Ox-MT concentration” value ([2]; 100 mg MTC IV, 0.33 hr) was 1.65 µmol/L, the “Blood Ox-MT concentration” value ([2]; 100 mg MTC IV, 0.5 hr) was 0.78 µmol/L and the “Blood Ox-MT concentration” value ([2]; 100 mg MTC IV, 0.65 hr) was 0.61 µmol/L. The “Blood Ox-MT concentration” value ([2]; 100 mg MTC IV, 0.83 hr) was 0.39 µmol/L, the “Blood Ox-MT concentration” value ([2]; 100 mg MTC IV, 1.01 hr) was 0.41 µmol/L and the “Blood Ox-MT concentration” value ([2]; 100 mg MTC IV, 1.99 hr) was 0.26 µmol/L. For the same compound, the “Blood Ox-MT concentration” value ([2]; 100 mg MTC IV, 4 hr) was 0.18 µmol/L, the “Blood Ox-MT concentration” value ([2]; 100 mg MTC oral (mean of with and without Mesna), 0 hr) was 0 µmol/L and the “Blood Ox-MT concentration” value ([2]; 100 mg MTC oral (mean of with and without Mesna), 0.09 hr) was 0.00064 µmol/L. The “Blood Ox-MT concentration” value ([2]; 100 mg MTC oral (mean of with and without Mesna), 0.15 hr) was 0.0011 µmol/L, the “Blood Ox-MT concentration” value ([2]; 100 mg MTC oral (mean of with and without Mesna), 0.24 hr) was 0.0064 µmol/L and the “Blood Ox-MT concentration” value ([2]; 100 mg MTC oral (mean of with and without Mesna), 0.33 hr) was 0.017 µmol/L. The “Blood Ox-MT concentration” value ([2]; 100 mg MTC oral (mean of with and without Mesna), 0.5 hr) was 0.041 µmol/L, the “Blood Ox-MT concentration” value ([2]; 100 mg MTC oral (mean of with and without Mesna), 0.83 hr) was 0.055 µmol/L and the “Blood Ox-MT concentration” value ([2]; 100 mg MTC oral (mean of with and without Mesna), 1.01 hr) was 0.064 µmol/L. For the same compound, the “Blood Ox-MT concentration” value ([2]; 100 mg MTC oral (mean of with and without Mesna), 1.99 hr) was 0.069 µmol/L, the “Blood Ox-MT concentration” value ([2]; 100 mg MTC oral (mean of with and without Mesna), 4 hr) was 0.038 µmol/L and the “% of dose excreted in urine at 24 hr” value ([2]; human, 100 mg MTC, IV) was 28.6 % of dose. For the same compound, the AUC ([2]; human, 100 mg MTC, IV) was 0.134 µmol/min/mL, the “Cl (clearance)” value ([2]; human, 100 mg MTC, IV) was 3 L/h and the “Estimated elimination T½: blood (1-4 hr)” value ([2]; human, 100 mg MTC, IV) was 5.25 h. For the same compound, the “% of dose excreted in urine at 24 hr” value ([2]; human, 100 mg MTC, Oral) was 18.6 % of dose, the AUC ([2]; human, 100 mg MTC, Oral) was 0.011 µmol/min/mL and the “Estimated elimination T½: urine (4-24 hr)” value ([2]; human, 100 mg MTC, Oral) was 6.6 h. The “fraction of total MT excreted in the urine in the L-MB form” value ([2]; human, did not differ between oral and IV dosing) was “approximately ⅓”.
